Results as given in patent EP0540859B1, “Anthracycline prodrugs” (Bristol-Myers Squibb Company, priority 1987, dated 1989).

What was measured:
Daudi cells = assay: 3H-thymidine assay on Daudi cells, PVA conjugates with APO; format: cell-based; settings: Figure 25
Experimental: The ^3H-thymidine assay was performed essentially as described in the examples above with slight modifications due to the fact that the Daudi cells are non-adherent. Thus, approximately 250,000 Daudi cells in IMDM were plated into each well of a 96-well microtiter plate and the antibody-enzyme conjugate added. The reaction mixture was incubated at 4°C for 30 min. Unbound antibody-enzyme conjugate was removed by centrifuging at 500 x g for 5 min and removing the supernatant. The cells were resuspended in IMDM and the washing procedure was repeated three times to remove all unbound conjugate. APO in IMDM was then added for 2 h and washed once as described above. The remainder of the assay was performed as described in the examples above.

H2981 tumor cells = assay: 3H-thymidine uptake assay on H2981 cells, PVA conjugates with APO; format: cell-based; settings: Homo sapiens; H2981 cells untreated with any conjugate
Experimental: The in vitro cytotoxic effect of the antibody-PVA/ adriamycin prodrug combination of the invention toward H2981 tumor cells was measured using the ^3H-thymidine uptake assay described in Examples 1 and 2 above. Briefly, the H2981 tumor cells were plated into 96-well microtiter plates in IMDM (10,000 cells/well) and were allowed to attached for 18 h at 37°C. The antibody-PVA conjugates, L6-PVA or 1F5-PVA, were then added at a concentration of 10 µg/ml of antibody and the plates were incubated for 30 min at 4°C. The wells were then washed four times with IMDM and APO was added at varying concentrations in IMDM. After two h, the wells were again washed, IMDM was added and the cells were left for 18 h at 37°C. At that point, ^3H-thymidine was added (1 µCi per well) and after 6 h, the plates were frozen at -70°C to detach the cells. After thawing, the cells were harvested onto glass fiber filters. The incorporation of ^3H-thymidine was measured in a Beckman 3801 scintillation counter and compared to cells treated with APO or adriamycin (ADM) alone.

Q: For COc1cccc2c1C(=O)c1c(O)c3c(c(O)c1C2=O)C[C@@](O)(C(=O)CO)C[C@@H]3O[C@H]1C[C@H](N)[C@H](O)[C@H](C)O1 [adriamycin, reference compound], which “cytotoxicity on Daudi cells” value (Daudi cells) is on record?
A: Its value is “significantly more toxic than APO”.

Q: And the IC50 (H2981 tumor cells)?
A: The IC50 was 38 nM.
